In patent publication US7605149B1, “Modulation of the phospholipase A2 pathway as a therapeutic” (University of South Florida, priority 1998, dated 2009):
Like-named read-outs stand apart in the source and are kept apart here.

Columns and labels:
[1] = system: rat aortae (aortic rings); assay: Vessel bath vasoactivity assay: ET-1-induced vasoconstriction of rat aortic rings and its enhancement by Aβ or sPLA2; type: cell-based; conditions: for effect on sPLA2-induced vasoconstriction: inactivation of sPLA2
Protocol: Vessel experiments. Freshly dissected aortae were prepared from normal male Sprague-Dawley rats (7-8 months old, purchased from Zivic Miller, Zelienople, Pa.) as previously described by Paris et al, Exp Neurol 1998 and Exp Neurol 1999. Rat aortae were segmented into rings and suspended in Kreb's buffer on hooks connected to a tensiometer linked to a MacLab system. Aortic rings were equilibrated for 2 hours, in 7 mL tissue baths containing Kreb's buffer oxygenated with 95% O2: 5% CO2, and thermoregulated to 37° C. A baseline tension of 2 g was applied to each ring, and the first set of aortic rings was pretreated with the various compounds named above either alone or in combination with Aβ peptides. After 5 minutes of incubation in the presence or absence of Aβ, this first set of vessels was subjected to a dose range of ET-1 (from 1 nM to 5 nM). A second set of vessels was treated with 1 μM of Aβ peptides prior to the addition of ET-1. A third set (control) received only ET-1 treatment. Each ET-1 dose was added only after the constriction response to the previous dose had reached a plateau. In all cases the means ±1 standard error (SE) of the percentage vasoconstriction increase over baseline were determined for each dose of ET-1 used.
(§1) Statistical analysis. Analysis of variance (ANOVA) was used to analyze the data, with post-hoc comparisons of means carried out where appropriate by Sheffe's or Bonferonni's methods. As previously described (Paris et al., Neurosci Lett, 1998), a significant interactive term by ANOVA was taken as evidence that both drug x and Aβ are modulating a common signal transduction pathway. […] Levene's test for equality of variance followed by t-test for independent samples was used for single mean comparisons. Alpha levels were set at 0.05 for all analyses. Analyses were performed using SPSS for Windows release 9.5.

[2] = system: intact rat aortae (aortic rings); assay: [3H]AA release in intact rat aortae; type: cell-based
Protocol: Measurement of [^3H]AA release in intact rat aortae. Aortic rings (1.5 mm long) were placed in 1 mL of physiological saline solution (PSS, containing 130 mM NaCl, 5 mM KCl, 1.5 mM CaCl2, 1.2 mM MgCl2, 10 mM HEPES, and 10 mM glucose adjusted to pH 7.2 with NaOH) and incubated with 2.5 μCi of [^3H]AA (specific activity of 91.8 Ci/mmol) for 24 h at 4° C. Rat aortae were subsequently washed in 50 mL of Kreb's buffer and then subjected to the vasoactivity assay. Initial background [^3H]AA release was determined following 30 min of equillibration for each aortic ring prior to treatment by removing 200 μL of Kreb's buffer (total volume of 7 mL each) from each bath, and measuring radioactivity (in cpm) after the addition of 1 mL of scintillant (EcoLume, ICN Inc., Calif.) using a liquid scintillation counter (1209 Rackbeta, WALLAC Inc., Md.). Subsequently, aortic rings were treated with sPLA2 alone or Aβ1-40 (1 μM) in the presence or absence of a MEK1/2 inhibitor (PD 98059) or a cPLA2 inhibitor (AACOCF3) for 5 min, or went untreated for the same length of time (control). Quantification of [^3H]AA release was then preformed as described above. All aortic rings were then subjected to a dose range of ET-1 (1, 2.5, and 5 nM), and radioactivity was measured 5 min after the first dose of ET-1 (1 nM), and 20 min after the second (2.5 nM) and third (5 nM) doses of ET-1. Radioactivity incorporated into each ring was determined by placing the aortic ring in 1 mL of scintillant and assaying as described above. Results are expressed as the means ±1 SE of the percentage of [^3H]AA incorporated for each aortic ring [([^3H]AA released—[^3H]AA initial background)/incorporated [^3H]AA].
as §1

N9 microglial cells = assay: Leukotriene B4 (LTB4) ELISA on microglial cell supernatants; type: cell-based, murine; conditions: 18 hours, FIG. 23
Protocol: Leukotriene -B4 (LTB4) enzyme-linked immunoabsorbant assay (ELISA). Quantitative determination of LTB4 levels was made using a competitive binding ELISA (R&D Systems, Minneapolis, Minn.) designed to measure LTB4 in cell culture supernatants (as described in Paris et al., Exp Neurol 1999). A murine microglial cell line (N9) was provided by Dr. Paola Ricciardi-Castagnoli (Cellular Pharmacology Center, Milan, Italy) and were grown in RPMI medium supplemented with five percent fetal calf serum, 2 mM glutamine, 100 U/mL penicillin, […] streptomycin and 0.05 mM 2-mercaptoethanol. Microglial cells were seeded at 50,000 cells/well in 6-well plates (Falcon, France) and treated with Aβ1-40 (500 nM), drugs which oppose the PLA2/AA/5-LOX/COX-2 pathway, or untreated (control) and incubated for 18 hours. Cell supernatants were then collected and diluted 10-fold in assay buffer. 50 μL of diluted samples were then used in the assay, and each sample was assayed in duplicate. Manipulations were performed in accordance with the manufacturer's instruction. A spectramax 250 spectrophotometer (Molecular Devices, San Diego, USA) was used to measure absorbance at 405 nm and a standard curve was plotted using a 4-parameter model.
as §1

[3] = system: rat aortae (aortic rings); conditions: cited from earlier work
[4] = 1 μM with 1 μM Aβ1-40, 5 minutes prior to ET-1, FIGS. 7, 9, 10, 12
[5] = 5 μM with 1 μM Aβ1-40, FIGS. 11, 19
[6] = 25 μM with 1 μM Aβ1-40, FIGS. 5, 16

## O[C@@H](CS)[C@@H](O)CS (racemic) [dithiothreithol]
[1]; concentration not given
  effect on sPLA2-induced vasoconstriction: inhibition of sPLA2-induced vasoconstriction

## CCCCC/C=C\C/C=C\C/C=C\C/C=C\CCCC(=O)O [AA, Arachidonic acid]
[1]; concentration not given
  effect on ET-1-induced vasoconstriction: can enhance ET-1-induced constriction

## CCCCC/C=C\C/C=C\C/C=C\C/C=C\CCCC(=O)C(F)(F)F [AACOCF3]
[2]; 1 μM with Aβ1-40 1 μM, FIG. 21
  effect on Aβ-induced [3H]AA release from aortic rings: inhibited

## O=C1O/C(=C/Br)CCC1c1cccc2ccccc12 (centres unmarked) [HELSS, haloenol lactone suicide substrate]
[1]; [4]
  effect on Aβ vasoactivity (Aβ1-40 enhancement of ET-1-induced vasoconstriction): unable to affect Aβ-induced vasoactivity

## CC(C)c1ccc2c(c1)c(SC(C)(C)C)c(CC(C)(C)C(=O)O)n2Cc1ccc(Cl)cc1 [MK-886]
[1]; [4]
  effect on Aβ vasoactivity (Aβ1-40 enhancement of ET-1-induced vasoconstriction): markedly inhibits Aβ vasoactivity

## CC[C@H](C)[C@H](NC(=O)CN)C(=O)NCC(=O)N[C@@H](C)C(=O)N[C@H](C(=O)N[C@@H](CC(C)C)C(=O)N[C@@H](CCCCN)C(=O)N[C@H](C(=O)N[C@@H](CC(C)C)C(=O)N[C@H](C(=O)N[C@H](C(=O)NCC(=O)N[C@@H](CC(C)C)C(=O)N1CCC[C@H]1C(=O)N[C@@H](C)C(=O)N[C@@H](CC(C)C)C(=O)N[C@H](C(=O)N[C@@H](CO)C(=O)N[C@@H](Cc1c[nH]c2ccccc12)C(=O)N[C@H](C(=O)N[C@@H](CCCCN)C(=O)N[C@@H](CCCNC(=N)N)C(=O)N[C@@H](CCCCN)C(=O)N[C@@H](CCCNC(=N)N)C(=O)N[C@@H](CCC(N)=O)C(=O)N[C@@H](CCC(N)=O)C(N)=O)[C@@H](C)CC)[C@@H](C)CC)[C@@H](C)O)[C@@H](C)O)C(C)C)C(C)C [Melittin]
[1]; 1 μM, 5 minutes prior to ET-1 dose range (1-5 nM), FIG. 3
  effect on ET-1-induced vasoconstriction: potentiate ET-1-induced vasoconstriction to a similar extent as Aβ

## CS(=O)(=O)Nc1ccc([N+](=O)[O-])cc1OC1CCCCC1 [NS-398]
[1]; [5]
  effect on Aβ vasoactivity (Aβ1-40 enhancement of ET-1-induced vasoconstriction): able to block Aβ vasoactivity
N9 microglial cells; 50 μM with Aβ1-40 500 nM
  effect on Aβ-induced microglial LTB4 release: complete blockade of LTB4 release

## COc1cccc(-c2cc(=O)c3ccccc3o2)c1N [PD 98059]
[1]; [6]
  effect on Aβ vasoactivity (Aβ1-40 enhancement of ET-1-induced vasoconstriction): complete blockade
[1]; 25 μM with 1 μM Aβ1-42, FIG. 17
  effect on Aβ1-42 vasoactivity: complete blockade
[1]; 25 μM with 2.5 U/mL sPLA2, FIG. 18
  effect on sPLA2 enhancement of ET-1-induced vasoconstriction: completely inhibit sPLA2 enhancement of ET-1-induced vasoconstriction
N9 microglial cells; 25 μM with Aβ1-40 500 nM
  effect on Aβ-induced microglial LTB4 release: complete blockade of Aβ-induced microglial LTB4 release
[2]; 25 μM with Aβ1-40 1 μM, FIG. 22
  effect on Aβ-induced [3H]AA release from aortic rings: blocked

## O=c1c(O)c(-c2ccc(O)c(O)c2)oc2cc(O)cc(O)c12 [Quercetin, quercetin]
[1]; 10 μM with 1 μM Aβ1-40, FIGS. 8, 14
  effect on Aβ vasoactivity (Aβ1-40 enhancement of ET-1-induced vasoconstriction): unable to block Aβ vasoactivity

## O=C(NCCCCCCNC(=O)ON=C1CCCCC1)ON=C1CCCCC1 [RHC-80267]
[1]; 8 μM with 1 μM Aβ1-40, FIG. 13
  effect on Aβ vasoactivity (Aβ1-40 enhancement of ET-1-induced vasoconstriction): not able to modulate ET-1-induced vasoconstriction or to affect Aβ enhancement of ET-1-induced vasoconstriction
[1]; 8 μM, 5 minutes prior to ET-1 dose range, FIG. 13
  effect on ET-1-induced vasoconstriction: not able to modulate ET-1-induced vasoconstriction

## Oc1ccc(-c2nc(-c3ccncc3)c(-c3ccc(F)cc3)[nH]2)cc1 [SB 202190]
[1]; [5]
  effect on Aβ vasoactivity (Aβ1-40 enhancement of ET-1-induced vasoconstriction): complete inhibition of Aβ vasoactivity
N9 microglial cells; 5 μM with Aβ1-40 500 nM
  effect on Aβ-induced microglial LTB4 release: complete blockade of Aβ-induced microglial LTB4 release

## Nc1ncnc2c1ncn2C1CCCO1 (centres unmarked) [SQ-22536]
[3]; adenylyl cyclase inhibitor, reference given
  effect on Aβ vasoactivity: does not have any effect on the vasoactive properties of Aβ

## COc1cccc2c1cc([N+](=O)[O-])c1c(C(=O)O)cc3c(c12)OCO3 [aristolochic acid]
[1]; high doses (25 μM)
  effect on Aβ vasoactivity: partial blockade of the vasoactive properties of Aβ
[1]; low doses (<10 μM)
  effect on Aβ vasoactivity: unable to affect Aβ vasoactivity

## CN(C)CCCn1cc(C2=C(c3c[nH]c4ccccc34)C(=O)NC2=O)c2ccccc21 [bisindolylmaleimide I]
[1]; 1.5 μM with 1 μM Aβ1-40, FIG. 15
  effect on Aβ vasoactivity (Aβ1-40 enhancement of ET-1-induced vasoconstriction): reduction in Aβ vasoactivity was merely additive
[1]; 1.5 μM, 5 minutes prior to ET-1 dose range, FIG. 15
  effect on ET-1-induced vasoconstriction: statistically interactive reduction in ET-1-induced vasoconstriction

## CCCCCCCC/C=C\CCCCCCCCOCCOP(=O)([O-])OCC[N+](C)(C)C [oleylox., oleyloxyethylphosphocholine]
[1]; [4]
  effect on Aβ vasoactivity (Aβ1-40 enhancement of ET-1-induced vasoconstriction): completely blocks
[1]; 1 μM with Aβ1-42
  effect on Aβ1-42 vasoactivity: completely blocks
[1]; concentration not given
  effect on sPLA2-induced vasoconstriction: inhibition of sPLA2-induced vasoconstriction

## CC(C)NCC(O)COc1cccc2ccccc12 (centres unmarked) [propanolol]
[1]; concentration not given
  effect on Aβ vasoactivity: unable to block Aβ vasoactivity

## APP657-676: APP-derived peptide, a known stimulator of Go (EFRHDSGYEVHHQKLVFFAE; UniProt P05067 674-693, looked up, fragment)
[1]; concentration not given
  effect on Aβ vasoactivity: not able to modulate ET-1-induced vasoconstriction or to affect Aβ-vasoactivity
  effect on ET-1-induced vasoconstriction: not able to modulate ET-1-induced vasoconstriction

## Aβ1-42: soluble β-amyloid peptide with forty-two amino acids, obtained from QCB
[3]; freshly solubilized, previously shown (Crawford et al., 1998)
  magnitude of constriction induced by ET-1 in isolated mammalian vessels: increase the magnitude of constriction induced by ET-1

## diacylglycerol [DAG]
[1]; 10 μM, 5 minutes prior to ET-1 dose range, FIG. 14
  effect on ET-1-induced vasoconstriction: able to potentiate ET-1-induced vasoconstriction

## isotetrandrine
[1]; [6]
  effect on Aβ vasoactivity (Aβ1-40 enhancement of ET-1-induced vasoconstriction): partially blocked Aβ vasoactivity

## mastoparan
[1]; 5 μM, 5 minutes prior to ET-1 dose range, FIG. 4
  effect on ET-1-induced vasoconstriction: potentiate ET-1-induced vasoconstriction to a similar extent as Aβ

## p-aminophenyl-α-D-mannopyranoside-bovine serum albumin [mannose-BSA]
[1]
  effect on ET-1-induced vasoconstriction: vasoactive to a similar extent as Aβ

## pertussis toxin
[1]; concentration not given
  effect on Aβ vasoactivity: insensitive
